Laboratory results published in PMC9964651, “Discovery of Ureido-Based Apcin Analogues as Cdc20-specific Inhibitors against Cancer” (Pharmaceuticals, 2023).
Structures can show the parent of a compound that is named as a salt. Where two headings read alike, the source gives them in different places.

Key:
[1] = tested on: Mcf-7; experiment: In vitro antiproliferative assay (CCK-8); conditions: read-out: IC50 ± SD Mcf-7
Description: (§1) Hela and MDA-MB-132 cells were grown in DMEM (Gibco) containing 10% FBS and 1% double antibody (penicillin 100 U/mL, streptomycin 100 μg/mL, Solarbio). […] All cell lines were purchased from the Xiangya Cell Bank, Central South University, Changsha, China, and incubated at 37 °C with 5% CO2 in a humidified atmosphere. […] Cytotoxicity assay was assessed using CCK-8 methods. The cells were seeded in a 96-well plate (2 × 10^3–3 × 10^3 cells/well), the 96-well plate was incubated at 37 °C with 5% CO2 in a humidified atmosphere, and the cells were grown in a monolayer; the original culture was discarded. A total of 100 μL of drug-containing medium with a specific concentration gradient was added and then cultivated for 48 h; 10 μL/well of CCK-8 solution was added, put in an incubator, and incubated for 1 h and read with a multi-function microplate reader at a wavelength of 450 nm. The inhibition rate was calculated, and the IC50 results were calculated by GraphPad Prism 7 software. The experiment was repeated three times.

[2] = tested on: Hepg2; experiment: In vitro antiproliferative assay (CCK-8); conditions: read-out: IC50 ± SD Hepg2
Description: as §1

[3] = tested on: four cancer-cell lines; experiment: In vitro antiproliferative assay (CCK-8), cell line not given; conditions: Homo sapiens, read-out: IC50 (antiproliferative activity)
[4] = tested on: Mda-mb-231; experiment: In vitro antiproliferative assay (CCK-8); conditions: read-out: IC50 ± SD Mda-mb-231
Description: as §1

[5] = tested on: Hela; experiment: In vitro antiproliferative assay (CCK-8); type: cell-based, human; conditions: CCK-8, 48 h, mean ± SD
Description: The experiment was repeated three times.

## O=C(NCCN1CCOCC1)NC(Nc1ncccn1)C(Cl)(Cl)Cl (stereo not shown) [Compound 4, 1-(2-morpholinoethyl)-3-(2,2,2-trichloro-1-(pyrimidin-2ylamino)ethyl)urea]
[1]; Homo sapiens, MCF7, 48 h
  IC50: > 100 µM
[2]; Homo sapiens, HepG2, 48 h
  IC50: > 100 µM
[3]
  IC50: > 80 µM
[4]; Homo sapiens, MDA-MB-231, 48 h
  IC50: > 100 µM
[5]; Homo sapiens, HeLa
  IC50: > 100 µM

## O=C(NCCc1ccccc1)NC(Nc1ncc([N+](=O)[O-])cn1)C(Cl)(Cl)Cl (stereo not shown) [Compound 14, 1-phenethyl-3-(2,2,2-trichloro-1-((5-nitropyrimidin-2-yl)amin-o)ethyl)urea]
[1]; Homo sapiens, MCF7, 48 h
  IC50: 44.7 ± 7.62 µM
[2]; Homo sapiens, HepG2, 48 h
  IC50: 51.8 ± 2.43 µM
[4]; Homo sapiens, MDA-MB-231, 48 h
  IC50: > 100 µM
[5]; Homo sapiens, HeLa
  IC50: 79.6 ± 45.2 µM

## O=C(NCCc1ccccc1)NC(Nc1ncccn1)C(Cl)(Cl)Cl (stereo not shown) [Compound 2, 1-phenethyl-3-(2,2,2-trichloro-1-(pyrimidin-2-ylamino)ethyl)urea]
[1]; Homo sapiens, MCF7, 48 h
  IC50: 79.3 ± 20.3 µM
[2]; Homo sapiens, HepG2, 48 h
  IC50: 66.3 ± 1.91 µM
[4]; Homo sapiens, MDA-MB-231, 48 h
  IC50: > 100 µM
[5]; Homo sapiens, HeLa
  IC50: 86.7 ± 4.25 µM

## O=C(NCCc1ccccc1)NC(Nc1ncc(F)cn1)C(Cl)(Cl)Cl (stereo not shown) [Compound 16, 1-phenethyl-3-(2,2,2-trichloro-1-((5-fluoropyrimidin-2-yl)amin-no)ethyl)urea]
[1]; Homo sapiens, MCF7, 48 h
  IC50: > 100 µM
[2]; Homo sapiens, HepG2, 48 h
  IC50: > 100 µM
[4]; Homo sapiens, MDA-MB-231, 48 h
  IC50: > 100 µM
[5]; Homo sapiens, HeLa
  IC50: > 100 µM

## Nc1nc(Cl)cc(NC(NC(=O)NCCc2ccccc2)C(Cl)(Cl)Cl)n1 (stereo not shown) [Compound 25, 1-(1-((2-amino-6-chloropyrimidin-4-yl)amino)-2,2,2-trichloroe-thyl)-3-phenethylurea]
[1]; Homo sapiens, MCF7, 48 h
  IC50: 37.3 ± 1.63 µM
[2]; Homo sapiens, HepG2, 48 h
  IC50: 32.5 ± 6.31 µM
[4]; Homo sapiens, MDA-MB-231, 48 h
  IC50: 52.2 ± 0.63 µM
[5]; Homo sapiens, HeLa
  IC50: 41.6 ± 8.81 µM

## O=C(NC(Nc1ncc(Cl)cn1)C(Cl)(Cl)Cl)NS(=O)(=O)c1ccccc1 (stereo not shown) [Compound 10, N-((2,2,2-trichloro-1-((5-chloropyrimidin-2yl)amino)ethyl)carbamoyl)benzenesul fonamide]
[1]; Homo sapiens, MCF7, 48 h
  IC50: > 100 µM
[2]; Homo sapiens, HepG2, 48 h
  IC50: > 100 µM
[4]; Homo sapiens, MDA-MB-231, 48 h
  IC50: > 100 µM
[5]; Homo sapiens, HeLa
  IC50: > 100 µM

## Nc1nc(F)nc2c1ncn2C(NC(=O)NCCc1ccccc1)C(Cl)(Cl)Cl (stereo not shown) [Compound 28, 1-(1-(6-amino-2-fluoro-9H-purin-9-yl)-2,2,2-trichloroethyl)-3-phenethylurea]
[1]; Homo sapiens, MCF7, 48 h
  IC50: 0.41 ± 0.05 µM
[2]; Homo sapiens, HepG2, 48 h
  IC50: 0.28 ± 0.13 µM
[4]; Homo sapiens, MDA-MB-231, 48 h
  IC50: 0.61 ± 0.12 µM
[5]; Homo sapiens, HeLa
  IC50: 0.17 ± 0.08 µM

## Cc1ccc(S(=O)(=O)NC(=O)NC(Nc2nccc(C(F)(F)F)n2)C(Cl)(Cl)Cl)cc1 (stereo not shown) [Compound 8, 4-methyl-N-((2,2,2-trichloro-1-((4-(trifluoromethyl)pyrimidin-2-yl)amino)ethyl)carbamoyl)benzenesulfonamide]
[1]; Homo sapiens, MCF7, 48 h
  IC50: > 100 µM
[2]; Homo sapiens, HepG2, 48 h
  IC50: > 100 µM
[4]; Homo sapiens, MDA-MB-231, 48 h
  IC50: > 100 µM
[5]; Homo sapiens, HeLa
  IC50: > 100 µM

## O=C(NCCc1ccccc1)NC(Nc1ncc(Cl)cn1)C(Cl)(Cl)Cl (stereo not shown) [Compound 9, 1-phenethyl-3-(2,2,2-trichloro-1-((5-chloropyrimidin-2-yl)amino)ethyl)urea]
[1]; Homo sapiens, MCF7, 48 h
  IC50: > 100 µM
[2]; Homo sapiens, HepG2, 48 h
  IC50: > 100 µM
[4]; Homo sapiens, MDA-MB-231, 48 h
  IC50: > 100 µM
[5]; Homo sapiens, HeLa
  IC50: > 100 µM

## O=C(NCCc1ccccc1)NC(NNc1nccc(C(F)(F)F)n1)C(Cl)(Cl)Cl (stereo not shown) [Compound 30, 1-phenethyl-3-(2,2,2-trichloro-1-(2-(4-(trifluoromethyl)pyrimi-din-2-yl)hydrazinyl)ethyl)urea]
[1]; Homo sapiens, MCF7, 48 h
  IC50: 72.4 ± 30.9 µM
[2]; Homo sapiens, HepG2, 48 h
  IC50: 58 ± 10.6 µM
[4]; Homo sapiens, MDA-MB-231, 48 h
  IC50: 73 ± 42.7 µM
[5]; Homo sapiens, HeLa
  IC50: > 100 µM

## Cc1cnc(NC(NC(=O)NCCc2ccccc2)C(Cl)(Cl)Cl)nc1 (stereo not shown) [Compound 23, 1-phenethyl-3-(2,2,2-trichloro-1-((5-methylpyrimidin-2-yl)ami-no)ethyl)urea]
[1]; Homo sapiens, MCF7, 48 h
  IC50: 60.4 ± 3.91 µM
[2]; Homo sapiens, HepG2, 48 h
  IC50: 67.9 ± 6.74 µM
[4]; Homo sapiens, MDA-MB-231, 48 h
  IC50: > 100 µM
[5]; Homo sapiens, HeLa
  IC50: > 100 µM

## CCNC(=O)NC(Nc1ncccn1)C(Cl)(Cl)Cl (stereo not shown) [Compound 5, 1-ethyl-3-(2,2,2-trichloro-1-(pyrimidin-2-ylamino)ethyl)urea]
[1]; Homo sapiens, MCF7, 48 h
  IC50: > 100 µM
[2]; Homo sapiens, HepG2, 48 h
  IC50: > 100 µM
[3]
  IC50: > 80 µM
[4]; Homo sapiens, MDA-MB-231, 48 h
  IC50: > 100 µM
[5]; Homo sapiens, HeLa
  IC50: > 100 µM

## O=C(NCCc1ccccc1)NC(Nc1nccc(C(F)(F)F)n1)C(Cl)(Cl)Cl (stereo not shown) [Compound 7, 1-phenethyl-3-(2,2,2-trichloro-1-((4-(trifluoromethyl)pyrimidin-2-yl)aminno16)ethyl)urea]
[1]; Homo sapiens, MCF7, 48 h
  IC50: 21.3 ± 4.52 µM
[2]; Homo sapiens, HepG2, 48 h
  IC50: 20.7 ± 3.6 µM
[3]
  IC50: < 40 µM
[4]; Homo sapiens, MDA-MB-231, 48 h
  IC50: 34.7 ± 1.23 µM
[5]; Homo sapiens, HeLa
  IC50: 34.2 ± 5.16 µM

## CCCNC(=O)NC(Nc1ncc([N+](=O)[O-])cn1)C(Cl)(Cl)Cl (stereo not shown) [Compound 13, 1-propyl-3-(2,2,2-trichloro-1-((5-nitropyrimidin-2-yl)amino)ethyl)urea]
[1]; Homo sapiens, MCF7, 48 h
  IC50: > 100 µM
[2]; Homo sapiens, HepG2, 48 h
  IC50: > 100 µM
[4]; Homo sapiens, MDA-MB-231, 48 h
  IC50: > 100 µM
[5]; Homo sapiens, HeLa
  IC50: > 100 µM

## 1-phenethyl-3-(2,2,2-trichloro-1-((2,6-dichloropyrimidin-4-yl)amino)ethyl)urea [Compound 17]
[1]; CCK-8, 48 h, mean ± SD
  IC50: > 100 µM
[2]; CCK-8, 48 h, mean ± SD
  IC50: > 100 µM
[4]; CCK-8, 48 h, mean ± SD
  IC50: 25.2 ± 10.8 µM
[5]
  IC50: 60 ± 7.55 µM

## N#Cc1cnc(NC(NC(=O)NCCc2ccccc2)C(Cl)(Cl)Cl)nc1 (stereo not shown) [Compound 15, 1-phenethyl-3-(2,2,2-trichloro-1-((5-cyanopyrimidin-2-yl)amin-o)ethyl)urea]
[1]; Homo sapiens, MCF7, 48 h
  IC50: > 100 µM
[2]; Homo sapiens, HepG2, 48 h
  IC50: > 100 µM
[4]; Homo sapiens, MDA-MB-231, 48 h
  IC50: > 100 µM
[5]; Homo sapiens, HeLa
  IC50: > 100 µM

## COC(=O)c1cnc(NC(NC(=O)NCCc2ccccc2)C(Cl)(Cl)Cl)nc1C (stereo not shown) [Compound 24, Methyl-4-methyl-2-((2,2,2-trichloro-1-(3-phenethylureido)eth-yl)amino)pyrimidine-5-carboxylate]
[1]; Homo sapiens, MCF7, 48 h
  IC50: 29.2 ± 3.46 µM
[2]; Homo sapiens, HepG2, 48 h
  IC50: 32.4 ± 5 µM
[4]; Homo sapiens, MDA-MB-231, 48 h
  IC50: 58.6 ± 18.4 µM
[5]; Homo sapiens, HeLa
  IC50: > 100 µM

## Cc1c(Cl)nc(NC(NC(=O)NCCc2ccccc2)C(Cl)(Cl)Cl)nc1Cl (stereo not shown) [Compound 12, 1-phenethyl-3-(2,2,2-trichloro-1-((4,6-dichloro-5-methylpyrimidin-2-yl)amino)ethyl)urea]
[1]; Homo sapiens, MCF7, 48 h
  IC50: 27.7 ± 2.13 µM
[2]; Homo sapiens, HepG2, 48 h
  IC50: 27.1 ± 5.27 µM
[4]; Homo sapiens, MDA-MB-231, 48 h
  IC50: > 100 µM
[5]; Homo sapiens, HeLa
  IC50: 43.5 ± 20.4 µM

## Cc1c(Cl)nc(NC(NC(=O)NS(=O)(=O)c2ccccc2)C(Cl)(Cl)Cl)nc1Cl (stereo not shown) [Compound 11, N-((2,2,2-trichloro-1-((4,6-dichloro-5-methylpyrimidin-2yl)amino)ethyl)carbamoyl)benzenesulfonamide]
[1]; Homo sapiens, MCF7, 48 h
  IC50: > 100 µM
[2]; Homo sapiens, HepG2, 48 h
  IC50: > 100 µM
[4]; Homo sapiens, MDA-MB-231, 48 h
  IC50: > 100 µM
[5]; Homo sapiens, HeLa
  IC50: > 100 µM

## Nc1c(Cl)nc(NC(NC(=O)OCCc2ccccc2)C(Cl)(Cl)Cl)nc1Cl (stereo not shown) [Compound 19, Phenethyl(1-((5-amino-4,6-dichloropyrimidin-2-yl)amino)-2,2,2-trichloroethyl)carbamate]
[1]; Homo sapiens, MCF7, 48 h
  IC50: 23.5 ± 4.17 µM
[2]; Homo sapiens, HepG2, 48 h
  IC50: 27.8 ± 1.85 µM
[4]; Homo sapiens, MDA-MB-231, 48 h
  IC50: 68.9 ± 2.67 µM
[5]; Homo sapiens, HeLa
  IC50: 34.04 ± 0.02 µM

## Nc1cc(Cl)nc(NC(NC(=O)NCCc2ccccc2)C(Cl)(Cl)Cl)n1 (stereo not shown) [Compound 26, 1-(1-((4-amino-6-chloropyrimidin-2-yl)amino)-2,2,2-trichloroe-thyl)-3-phenethylurea]
[1]; Homo sapiens, MCF7, 48 h
  IC50: 44.8 ± 8.78 µM
[2]; Homo sapiens, HepG2, 48 h
  IC50: 32.8 ± 3.94 µM
[4]; Homo sapiens, MDA-MB-231, 48 h
  IC50: 61.6 ± 11.1 µM
[5]; Homo sapiens, HeLa
  IC50: 44.7 ± 4.6 µM

## 1-phenethyl-3-(2,2,2-trichloro-1-((4,6-difluoropyrimidin-2-yl)amino)ethyl)urea [Compound 22]
[1]; CCK-8, 48 h, mean ± SD
  IC50: 24.8 ± 9.49 µM
[2]; CCK-8, 48 h, mean ± SD
  IC50: 26.13 ± 0.05 µM
[4]; CCK-8, 48 h, mean ± SD
  IC50: 27.81 ± 0.17 µM
[5]
  IC50: 31.9 ± 3.29 µM

## Nc1c(Cl)nc(NC(NC(=O)NCCN2CCOCC2)C(Cl)(Cl)Cl)nc1Cl (stereo not shown) [Compound 21, 1-(1-((5-amino-4,6-dichloropyrimidin-2-yl)-l4-azanyl)-2,2,2-trichloroethyl)-3-(2-morpholinoethyl)urea]
[1]; Homo sapiens, MCF7, 48 h
  IC50: > 100 µM
[2]; Homo sapiens, HepG2, 48 h
  IC50: > 100 µM
[4]; Homo sapiens, MDA-MB-231, 48 h
  IC50: > 100 µM
[5]; Homo sapiens, HeLa
  IC50: > 100 µM

## O=C(NCCc1ccccc1)NC(Nc1nc(Cl)cc(Cl)n1)C(Cl)(Cl)Cl (stereo not shown) [Compound 18, 1-phenethyl-3-(2,2,2-trichloro-1-((4,6-dichloropyrimidin-2-yl)amino)ethyl)urea, sodium salt]
[1]; Homo sapiens, MCF7, 48 h
  IC50: 33.8 ± 1.91 µM
[2]; Homo sapiens, HepG2, 48 h
  IC50: 30.59 ± 0.1 µM
[4]; Homo sapiens, MDA-MB-231, 48 h
  IC50: 50.4 ± 3.07 µM
[5]; Homo sapiens, HeLa
  IC50: 36.7 ± 1.23 µM

## Cc1ncc([N+](=O)[O-])n1CCNC(=O)NC(n1cnc2c(N)nc(F)nc21)C(Cl)(Cl)Cl (stereo not shown) [Compound 29, 1-(1-(6-amino-2-fluoro-9H-purin-9-yl)-2,2,2-trichloroethyl)-3-(2-(2-methyl-5-nitro-1H-imidazol-1-yl)ethyl)urea]
[1]; Homo sapiens, MCF7, 48 h
  IC50: 0.23 ± 0.09 µM
[2]; Homo sapiens, HepG2, 48 h
  IC50: 0.13 ± 0.05 µM
[4]; Homo sapiens, MDA-MB-231, 48 h
  IC50: 0.37 ± 0.07 µM
[5]; Homo sapiens, HeLa
  IC50: 0.08 ± 0.01 µM
